Drawing on patent publication US20110190503A1, “Thiazolopyridin-2-yloxy-phenyl and thiazolopyrazin-2-yloxy-phenyl amines as modulators of leukotriene A4 hydrolase” (Janssen Pharmaceutical NV, priority 2008, published 2011), this text covers IC50 for 26 compounds.

For orientation: IC50 means the midpoint of a concentration-inhibition curve.

Structures can show the parent of a compound that is named as a salt.

The assay deals with T1, recombinant human LTA4 hydrolase (rhLTA4H) (Homo sapiens, UniProt P09960).
T1 construct: made in house; host or cells: Spodoptera frugiperda (Sf-9) cells, recombinant baculovirus (pFastBac1)
T1 sequence (P09960 1-611): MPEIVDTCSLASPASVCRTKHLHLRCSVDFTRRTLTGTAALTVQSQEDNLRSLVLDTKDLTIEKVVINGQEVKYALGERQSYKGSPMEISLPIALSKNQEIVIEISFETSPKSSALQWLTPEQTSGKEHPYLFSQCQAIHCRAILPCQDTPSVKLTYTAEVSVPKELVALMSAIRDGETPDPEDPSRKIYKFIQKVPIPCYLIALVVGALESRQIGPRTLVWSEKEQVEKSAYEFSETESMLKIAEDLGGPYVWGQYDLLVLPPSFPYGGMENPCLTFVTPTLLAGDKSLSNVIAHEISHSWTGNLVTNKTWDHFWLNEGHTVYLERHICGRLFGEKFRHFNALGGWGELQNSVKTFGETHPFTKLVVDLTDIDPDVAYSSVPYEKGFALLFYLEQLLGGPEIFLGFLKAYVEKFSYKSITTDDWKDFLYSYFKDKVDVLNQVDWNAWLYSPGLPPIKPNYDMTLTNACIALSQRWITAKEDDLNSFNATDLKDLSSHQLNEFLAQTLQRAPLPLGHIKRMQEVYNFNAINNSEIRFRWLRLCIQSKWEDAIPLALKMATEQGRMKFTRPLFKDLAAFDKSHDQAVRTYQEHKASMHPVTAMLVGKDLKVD
As to the kind of experiment: Recombinant human LTA4 hydrolase assay for LTA4 hydrolase inhibitor activity. The format is biochemical. As to conditions: rhLTA4H, LTA4 substrate, LTB4 by immunoassay; single determination or average; read-out: IC50. As for the experimental part:
Assay 1: Recombinant Human LTA4 Hydrolase Assay for LTA4 Hydrolase Inhibitor Activity
Compounds of the present invention were tested for LTA4 hydrolase inhibitor activity against recombinant human LTA4 hydrolase (rhLTA4H). Vectors were prepared and used to express rhLTA4H essentially as follows: LTA4 hydrolase encoding DNA was amplified by polymerase chain reaction (PCR) using a human placental cDNA library as a template. […] The amplified 1.9 kb DNA fragment encoding LTA4 hydrolase was isolated and cloned into the pFastBac1 vector (Invitrogen). Recombinant baculovirus was generated as described by the manufacturer, and used to infect Spodoptera frugiperda (Sf-9) cells. […] The purified enzyme solution was adjusted to contain 0.29 mg/mL LTA4 hydrolase, 50 mM Tris (pH 8.0), 150 mM NaCl, 5 mM dithiothreitol, 50% glycerol, and EDTA-free Complete protease inhibitor cocktail (Roche).
LTA4 substrate was prepared from the methyl ester of LTA4 (Cayman Chemical) by treatment with 67 equiv of NaOH under nitrogen at rt for 40 min. The LTA4 substrate in its free acid form was kept frozen at −80° C. until needed. Each compound was diluted to different concentrations in assay buffer (from Assay Designs) containing 10% DMSO. A 25-μL aliquot of each compound dilution was incubated for 10 min at rt with an equal volume of assay buffer containing 10 ng of recombinant human LTA4H. The solution was then adjusted to 200 μL with assay buffer. […] Each reaction was carried out at rt for 30 min. The reaction was stopped by diluting 10 μL of the reaction mixture with 200 μL of assay buffer. LTB4 was quantified in the diluted sample by a commercially available enzyme-linked immunoassay (Cayman Chemical Co.), as recommended by the manufacturer. Positive controls, under essentially identical conditions but without addition of an inhibitor compound, and negative controls, containing all assay components except enzyme, were routinely run in each experiment. IC50 values were determined by nonlinear regression of the activity data at different compound concentrations using Graphpad Prism 4.0, one site binding competition.
The values presented here are the result of a single determination or an average of two or more determinations, as indicated in parentheses following each value. For compounds tested three or more times, the average value is followed by the standard deviation
As for `Clc1cnc2nc(Oc3ccc(CN4CCSCC4)cc3)sc2c1` [Example 189, 6-Chloro-2-{[4-(thiomorpholin-4-ylmethyl)phenyl]oxy}[1,3]thiazolo[4,5-b]pyridine], the IC50 was determined as 308 nM.
On to `CC(=O)N1C[C@@H]2C[C@H]1CN2CCc1ccc(Oc2nc3cccnc3s2)cc1` [Example 51, 2-(4-{2-[(1S,4S)-5-Acetyl-2,5-diazabicyclo[2.2.1]hept-2-yl]ethyl}phenoxy)[1,3]thiazolo[5,4-b]pyridine], for which the IC50 amounted to 110 nM.
In the case of `Clc1ccc(SC2CCN(CCOc3ccc(Oc4nc5ncccc5s4)cc3)CC2)cc1` [Example 136, 2-[4-(2-{4-[(4-Chlorophenyl)sulfanyl]piperidin-1-yl}ethoxy)phenoxy][1,3]thiazolo[4,5-b]pyridine] it was 427 nM; in that of `CN1CCCN(CCOc2ccc(Oc3nc4cccnc4s3)cc2)CC1` [Example 152, 2-{4-[2-(4-Methyl-1,4-diazepan-1-yl)ethoxy]phenoxy}[1,3]thiazolo[5,4-b]pyridine], 498 nM.
`NC(=O)N1C[C@@H]2C[C@H]1CN2CCc1ccc(Oc2nc3cccnc3s2)cc1` [Example 78, (1S,4S)-5-{2-[4-([1,3]Thiazolo[5,4-b]pyridin-2-yloxy)phenyl]ethyl}-2,5-diazabicyclo[2.2.1]heptane-2-carboxamide]: the IC50 worked out at 160 nM.
In the case of `O=C(O)CN(Cc1ccccc1)Cc1ccc(Oc2nc3ncccc3s2)cc1` [Example 274, N-Benzyl-N-[4-([1,3]thiazolo[4,5-b]pyridin-2-yloxy)benzyl]glycine], the IC50 was 919 nM.
Then `OCCCN(CCOc1ccc(Oc2nc3ccncc3s2)cc1)C1CC1` [Example 208, 3-(Cyclopropyl{2-[4-([1,3]thiazolo[5,4-c]pyridin-2-yloxy)phenoxy]ethyl}amino)propan-1-ol], with 3900 nM; and `Cc1ccnc2nc(Oc3ccc(CN4C[C@H]5CC[C@@H](C4)N5C(N)=O)cc3)sc12` [Example 203, meso-3-{4-[(7-Methyl[1,3]thiazolo[4,5-b]pyridin-2-yl)oxy]benzyl}-3,8-diazabicyclo[3.2.1]octane-8-carboxamide], with 679 nM.
Consider `NC(=O)N1C[C@@H]2C[C@H]1CN2CCOc1ccc(Oc2nc3cccnc3s2)cc1` [Example 21, (1S,4S)-5-{2-[4-([1,3]Thiazolo[5,4-b]pyridin-2-yloxy)phenoxy]ethyl}-2,5-diazabicyclo[2.2.1]heptane-2-carboxamide], for which the IC50 came out at 160 nM.
Then `CS(=O)(=O)N1C[C@H]2C[C@@H]1CN2CCOc1ccc(Oc2nc3ccncc3s2)cc1` [Example 151, 2-(4-{2-[(1R,4R)-5-(Methylsulfonyl)-2,5-diazabicyclo[2.2.1]hept-2-yl]ethoxy}phenoxy)[1,3]thiazolo[5,4-c]pyridine], with 367 nM; and `NC(=O)N1[C@@H]2CC[C@H]1CN(Cc1ccc(Oc3nc4cnccc4s3)cc1)C2` [Example 202, meso-3-[4-([1,3]Thiazolo[4,5-c]pyridin-2-yloxy)benzyl]-3,8-diazabicyclo[3.2.1]octane-8-carboxamide], with around 9000 nM.
With `NC(=O)N[C@@H]1C[C@H]2CC[C@@H](C1)N2Cc1ccc(Oc2nc3nccnc3s2)cc1` [Example 199, meso-1-{(3-exo)-8-[4-([1,3]Thiazolo[4,5-b]pyrazin-2-yloxy)benzyl]-8-azabicyclo[3.2.1]oct-3-yl}urea], the IC50 was 42 nM.
For `CCC(=O)NC1CCN(Cc2ccc(Oc3nc4cccnc4s3)cc2)CC1` [Example 219, N-{1-[4-([1,3]Thiazolo[5,4-b]pyridin-2-yloxy)benzyl]piperidin-4-yl}propanamide], the IC50 was 276 nM.
As for `CC(=O)N1[C@@H]2CC[C@H]1CN(CCc1ccc(Oc3nc4ncccc4s3)cc1)C2` [Example 212, meso-2-(4-{2-[8-Acetyl-3,8-diazabicyclo[3.2.1]oct-3-yl]ethyl}phenoxy)[1,3]thiazolo[4,5-b]pyridine], the IC50 is 18 nM.
In the case of `Cc1ccnc2nc(Oc3ccc(OCCN4[C@@H]5CC[C@H]4C[C@@H](NC(=O)CN)C5)cc3)sc12` [Example 166, meso-N-{(3-endo)-8-[2-({4-[(7-Methyl[1,3]thiazolo[4,5-b]pyridin-2-yl)oxy]phenyl}oxy)ethyl]-8-azabicyclo[3.2.1]oct-3-yl}glycinamide hydrochloride] it was 114 nM.
With `NC(=O)N[C@@H]1C[C@H]2CC[C@@H](C1)N2Cc1ccc(Oc2nc3ccncc3s2)cc1` [Example 200, meso-1-{(3-exo)-8-[4-([1,3]Thiazolo[5,4-c]pyridin-2-yloxy)benzyl]-8-azabicyclo[3.2.1]oct-3-yl}urea], the IC50 is 374 nM.
On to `O=C(O)C1CCN(CCOc2ccc(Oc3nc4cccnc4s3)cc2)CC1` [Example 44, 1-{2-[4-([1,3]Thiazolo[5,4-b]pyridin-2-yloxy)phenoxy]ethyl}piperidine-4-carboxylic acid], for which the IC50 was 660 nM.
On to `CCOC(=O)CN(Cc1ccccc1)Cc1ccc(Oc2nc3ncccc3s2)cc1` [Example 273, Ethyl N-benzyl-N-[4-([1,3]thiazolo[4,5-b]pyridin-2-yloxy)benzyl]glycinate], for which the half-inhibitory concentration (IC50) worked out at 176 nM.
Turning to `CS(=O)(=O)N1C[C@H]2CC[C@@H](C1)N2CCOc1ccc(Oc2nc3ncccc3s2)cc1` [Example 213, meso-2-(4-{2-[3-(Methylsulfonyl)-3,8-diazabicyclo[3.2.1]oct-8-yl]ethoxy}phenoxy)[1,3]thiazolo[4,5-b]pyridine], the IC50 turned out to be 34 nM.
Turning to `CC(=O)N1[C@@H]2CC[C@H]1C[C@H](NCCc1ccc(Oc3nc4ncccc4s3)cc1)C2` [Example 214, meso-(3-exo)-8-Acetyl-N-{2-[4-([1,3]thiazolo[4,5-b]pyridin-2-yloxy)phenyl]ethyl}-8-azabicyclo[3.2.1]octan-3-amine], the IC50 came to 3 nM.
Take `CC(=O)N1C[C@@H]2C[C@H]1CN2CCOc1ccc(Oc2nc3cccnc3s2)cc1` [Example 20, 2-(4-{2-[(1S,4S)-5-Acetyl-2,5-diazabicyclo[2.2.1]hept-2-yl]ethoxy}phenoxy)[1,3]thiazolo[5,4-b]pyridine]: the IC50 worked out at 130 nM.
On to `Cc1ccnc2sc(Oc3ccc(CN4CCC(C(N)=O)CC4)cc3)nc12` [Example 286, 1-{4-[(7-Methyl[1,3]thiazolo[5,4-b]pyridin-2-yl)oxy]benzyl}piperidine-4-carboxamide], for which the IC50 is above 10000 nM.
In the case of `CC(=O)N1C[C@@H]2C[C@H]1CN2Cc1ccc(Oc2nc3ccc(C)nc3s2)cc1` [Example 118, 2-(4-{[(1S,4S)-5-Acetyl-2,5-diazabicyclo[2.2.1]hept-2-yl]methyl}phenoxy)-5-methyl[1,3]thiazolo[5,4-b]pyridine], the IC50 stood at 3740 nM.
On to `CC(C)(C)C1CCN(Cc2ccc(Oc3nc4ncc(Cl)cc4s3)cc2)CC1` [Example 218, 2-{4-[(4-tert-Butylpiperidin-1-yl)methyl]phenoxy}-6-chloro[1,3]thiazolo[4,5-b]pyridine], for which the IC50 came out at 212 nM.
As to `Cc1ccnc2nc(Oc3ccc(CN4CCN(c5ccncc5)CC4)cc3)sc12` [Example 168, 7-Methyl-2-({4-[(4-pyridin-4-ylpiperazin-1-yl)methyl]phenyl}oxy)[1,3]thiazolo[4,5-b]pyridine], the half-maximal inhibitory concentration (IC50) stood at 647 nM.
Consider `OC1(c2ccccc2)CCN(CCc2ccc(Oc3nc4ncccc4s3)cc2)CC1` [Example 62, 4-Phenyl-1-{2-[4-([1,3]thiazolo[4,5-b]pyridin-2-yloxy)phenyl]ethyl}piperidin-4-ol], for which the IC50 was 8.3 nM.
